Measured values as given in patent publication US20230110128A1, “USE OF ANTIBODY DRUG CONJUGATES COMPRISING TUBULIN DISRUPTING AGENTS TO TREAT SOLID TUMOR” (Seagen Inc., priority 2018, published 2023).
Non-standard residues stand in square brackets, D forms with d. Residues, ends and D or L forms follow the SMILES beside them. *: point of attachment. Dolaproine = CO[C@@H]([C@@H]1CCCN1)[C@@H](C)C(=O)O; Dil = CC[C@H](C)[C@H](NC)[C@@H](CC(=O)O)OC; X1 = C[C@@H](N*)[C@@H](O)c1ccccc1; NMeV = CN[C@H](C(=O)O)C(C)C

Key:
Format in all cases: cell-based
MiaPaca2 cells = test: ATP secretion from MiaPaca2 cells; conditions: supernatant after 16 hours
Method: MiaPaca2 cells were treated with MMAE, Vincristine, or Paclitaxel. Supernatant was collected after 16 hours of treatment, and analyzed for ATP secretion.

[1] = test system: PC-3 prostate tumor cells; test: ATP secretion from PC-3 cells
Method: PC-3 prostate tumor cells were also treated with MMAE, Vincristine, or Paclitaxel. Supernatant was collected after 16 hours of treatment, and analyzed for ATP secretion. […] PC-3 cells were treated for 24 hours with an MMAE-containing ADC (SGN-LIV1A) or MMAE and harvested in RIPA buffer for western blot analysis (FIG. 3C).

PC-3 cells = test: HMGB1 release from PC-3 cells; conditions: FIG. 3E
[2] = test system: A2058, SK-MEL-5, SK-MEL-28 (skin) cell lines; test: ATP secretion in skin cell lines; conditions: A2058, SK-MEL-5, SK-MEL-28, after 17 hours
Method: Skin tumor lines A2058, SK-MEL-5 and SK-MEL-28, Calu-1 (lung), HT-1080 (fibrosarcoma), SK-MES-1 (lung), and BXPC3 (pancreas) cells were treated with MMAE, vincristine, and Paclitaxel. Supernatant was collected after 17 hours of treatment, and analyzed for ATP secretion.

[3] = test system: A2058, SK-MEL-5, and SK-MEL-28 (skin) cells co-cultured with macrophages; test: Macrophage antigen presentation after co-culture with treated skin tumor cells; conditions: tumor cells treated 24 hours; macrophages harvested 4 days after co-culture; normalized to untreated
Method: (§1) Macrophages were enriched from PBMCs from 2 healthy donors by adhering PBMCs to cell culture-grade plastic. Non-adherent cells were removed 24 hours later, leaving a population of cells enriched for macrophages.
(§2) A2058, SK-MEL-5, and SK-MEL-28 (skin) cells were treated with MMAE, vincristine, and Paclitaxel for 24 hours. Cells were washed and harvested, and subsequently co-cultured with the enriched macrophages prepared above. Macrophages were harvested 4 days after co-culture and assayed for immune activation by flow cytometry. The level of antigen-presentation (as measured by frequency of MHCII-expressing cells) was quantified and normalized to macrophages that were co-cultured with untreated tumor cells.

[4] = test system: A2058 and SK-MEL-5 tumor cells co-cultured with macrophages; test: Cytokine and chemokine production in macrophage co-culture with treated A2058 and SK-MEL-5 cells; conditions: A2058 and SK-MEL-5 co-culture supernatant 24 hours, ELISA, normalized to untreated
Method: Supernatant from the co-culture of macrophages and dying A2058 and SK-MEL-5 tumor cells was harvested 24 hours later and assayed for levels of cytokine and chemokine production by ELISA and normalized to macrophages that were co-cultured with untreated tumor cells.

[5] = test system: BxPC3 and HPAFII (pancreas) cells co-cultured with macrophages; test: Macrophage antigen presentation after co-culture with treated pancreas tumor cells; conditions: BxPC3 and HPAFII treated 24 hours; macrophages harvested 4 days after co-culture
Method: as §1
as §2, with “BxPC3” for “A2058, SK-MEL-5,”, “HPAFII (pancreas)” for “SK-MEL-28 (skin)”, “Level” for “The level”

[6] = test system: BxPC3 and HPAFII tumor cells co-cultured with macrophages; test: Cytokine and chemokine production in macrophage co-culture with treated BxPC3 and HPAFII cells; conditions: BxPC3 and HPAFII co-culture supernatant 24 hours, ELISA, normalized to untreated
Method: Supernatant from the co-culture of macrophages and dying tumor cells was harvested 24 hours later and assayed for levels of cytokine and chemokine production by ELISA and normalized to macrophages that were co-cultured with untreated tumor cells.

[7] = test system: Calu-1, HT1080 and SK-MES-1 cells co-cultured with macrophages; test: Macrophage costimulation/antigen presentation after co-culture with treated Calu-1, HT1080 and SK-MES-1 cells; conditions: normalized to untreated
Method: Additional cell lines [Calu-1 (lung), HT1080 (fibrosarcoma) and SK-MES-1 […]] were tested for levels of antigen presentation after co culture with macrophages as above. Levels of costimulation (as measured by frequency of CD86-expressing macrophages, Calu-1) or antigen-presentation (as measured by frequency of MHCII-expressing macrophages, HT1080 and SK-MES-1) were quantified and normalized to macrophages that were co-cultured with untreated tumor cells. […] Calu-1, HT-1080, and SK-MES-1 cells were treated with an MMAE-containing ADC (anti-p97-MMAE), vincristine, or paclitaxel for 24 hours and analyzed for HMGB1 release by ELISA.

[8] = test system: Calu-1 cells co-cultured with macrophages; test: Cytokine and chemokine production in macrophage co-culture with treated Calu-1 cells; conditions: Calu-1 co-culture supernatant 24 hours, ELISA, normalized to untreated
Method: Supernatant from the co-culture of macrophages and dying tumor cells was harvested 24 hours later and assayed for levels of cytokine and chemokine production by ELISA and normalized to macrophages that were co-cultured with untreated tumor cells as described above.

MDA-MB-468 cells = test: ATP secretion from MDA-MB-468 cells; conditions: supernatant after 48 hours
Method: MDA-MB-468 cells were treated with MMAE or an MMAE-containing ADC (ASG-22ME). Supernatant was collected after 48 hours of treatment, and analyzed for ATP secretion.

[9] = test system: Hep3b, Huh7, and JHH7 cells; test: ATP secretion from liver tumor lines; conditions: Huh7, JHH7, 24 hours
Method: Liver tumor lines Hep3b, Huh7, and JHH7 cells were treated with MMAE, Tubulysin M, vincristine, and Paclitaxel for 24 hours and analyzed for ATP secretion. […] Cells were washed and harvested, and subsequently co-cultured with enriched macrophages prepared as above. Macrophages were harvested 4 days after co-culture and assayed for immune activation by flow cytometry. Levels of costimulation (as measured by CD86 expression, JHH7) and antigen-presentation (as measured by frequency of MHCII-expressing cells, Hep3b, Huh7, and JHH7) were quantified and normalized to macrophages that were co-cultured with […]. […] Supernatant from the co-culture of macrophages and dying liver tumor cells was harvested 24 hours later and assayed for levels of cytokine and chemokine production by ELISA and normalized to macrophages that were co-cultured with untreated tumor cells.

U-266 cells = test: Cell surface ICD markers (HSP70, calreticulin) on AnnexinV negative U-266 cells; conditions: 48 hours, MMAE 492 nM, SGN-CD48A 10 ng/ml
Method: U-266 cells were treated for 48 hours with free MMAE (492 nM), an MMAE-containing ADC (SGN-CD48A, 10 ng/ml), and a non-binding MMAE-ADC (10 ng/ml) for 48 hours. Cells were harvested, washed in flow buffer, and subsequently stained for both AnnexinV, a marker for apoptosis, and HSP70. Cells were also stained with both AnnexinV and calreticulin. In both conditions, cells that were AnnexinV negative were selected and the percent population that was positive for HSP70 or calreticulin were determined.

Structure (SMILES): CC[C@H](C)[C@@H]([C@@H](CC(=O)N1CCC[C@H]1[C@H](OC)[C@@H](C)C(=O)N[C@H](C)[C@@H](O)c1ccccc1)OC)N(C)C(=O)[C@@H](NC(=O)[C@@H](NC)C(C)C)C(C)C [MMAE, monomethyl auristatin E] (H-[NMeV]V[Dil][Dolaproine]-X1)
- ATP secretion (MiaPaca2 cells): robust ATP secretion
- Release of ATP ([1]; FIG. 3D): release of ATP
- ATP secretion ([1]; supernatant after 16 hours): robust ATP secretion
- Release of HMGB1 (PC-3 cells): release of ATP and HMGB1
- ATP secretion (skin cell lines responding) [2]: potent ATP secretion from all 3
- Antigen-presentation (frequency of MHCII-expressing cells) [3]: increase in antigen-presentation in 2/3 tumor cell lines that was more robust than Paclitaxel
- Cytokine and chemokine production [4]: increase of the indicated cytokines and chemokines that was more robust than treatment with Paclitaxel
- Antigen-presentation (frequency of MHCII-expressing cells) [5]: increase in antigen-presentation in 1/2 tumor cell lines
- Cytokine and chemokine production [6]: increase of the indicated cytokines and chemokines that was more robust than treatment with Paclitaxel
- Immune activation (CD86-expressing macrophages, Calu-1; MHCII-expressing macrophages, HT1080 and SK-MES-1) [7]: increase in immune activation in 3/3 tumor cell lines that was more robust than treatment with Paclitaxel
- Cytokine and chemokine production [8]: increase of the indicated cytokines and chemokines that was more robust than treatment with Paclitaxel
- ATP secretion (MDA-MB-468 cells): robust ATP secretion that was comparable to thapsigargin
- ATP secretion (cell lines responding) [9]: potent ATP secretion from 3 of 3 cell lines evaluated
- Percentage of ICD markers (HSP70, calreticulin) on the cell surface of AnnexinV negative cells (U-266 cells): increase in the percentage of ICD markers
